Measurements published in PMC5062470, “The mGluR2 positive allosteric modulator, SAR218645, improves memory and attention deficits in translational models of cognitive symptoms associated with schizophrenia” (Scientific Reports, 2016).

What was measured:
[1] = target: T1, human mGluR8 (Homo sapiens, UniProt O00222); test: Multispan Allosteric Profiling panel, Ca2+ (Gqi5); format: cell-based
T1 construct: host or cells: HEK293 co-expressing Gqi5

[2] = tested on: approximately 180 different receptors, ion channels, enzymes, transporters and kinases; test: In vitro selectivity profile (CEREP and internal panels); format: binding; settings: up to 10 μM
Experimental: The effect of SAR218645 on approximately 180 different receptors, ion channels, enzymes, transporters and kinases (see Supplementary Material Table S1) was evaluated at a contract research organization (CEREP, Celle L’Evescault, France) using established protocols or through internal studies.

[3] = target: T2, rat mGluR3 (Rattus norvegicus, UniProt P31422); test: [3H]LY341495 binding to membranes
T2 construct: expressed in transfected cells; host or cells: inducible HEK-293 cell line (membranes)
T2 sequence (P31422 23-879): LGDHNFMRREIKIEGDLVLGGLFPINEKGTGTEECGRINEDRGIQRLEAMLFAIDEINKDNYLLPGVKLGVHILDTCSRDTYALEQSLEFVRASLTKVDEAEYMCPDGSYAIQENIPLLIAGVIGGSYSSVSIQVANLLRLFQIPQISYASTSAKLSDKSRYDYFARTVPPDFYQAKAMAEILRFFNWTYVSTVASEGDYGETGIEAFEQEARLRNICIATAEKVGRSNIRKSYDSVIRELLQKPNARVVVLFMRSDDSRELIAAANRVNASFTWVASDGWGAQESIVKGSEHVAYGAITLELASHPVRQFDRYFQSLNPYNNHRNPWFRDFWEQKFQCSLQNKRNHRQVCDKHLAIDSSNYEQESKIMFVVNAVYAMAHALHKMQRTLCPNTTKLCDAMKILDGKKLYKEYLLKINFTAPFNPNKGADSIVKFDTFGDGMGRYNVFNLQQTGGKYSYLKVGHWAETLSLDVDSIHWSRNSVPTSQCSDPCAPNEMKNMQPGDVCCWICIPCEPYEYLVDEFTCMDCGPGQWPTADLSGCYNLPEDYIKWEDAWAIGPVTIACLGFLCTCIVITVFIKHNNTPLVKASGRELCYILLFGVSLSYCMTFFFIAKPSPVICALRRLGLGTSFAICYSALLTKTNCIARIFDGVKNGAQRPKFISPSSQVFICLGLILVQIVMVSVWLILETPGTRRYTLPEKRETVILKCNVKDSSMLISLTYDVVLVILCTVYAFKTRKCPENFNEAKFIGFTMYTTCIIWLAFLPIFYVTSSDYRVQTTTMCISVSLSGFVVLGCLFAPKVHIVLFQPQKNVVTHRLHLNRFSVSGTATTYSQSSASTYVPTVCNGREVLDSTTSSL
Experimental: Membranes were prepared from an inducible HEK-293 cell line expressing rat mGluR2 or mGluR3. Binding assay was adapted from Johnson et al.[29]. Briefly, [^3H]LY341495 (1.4 nM) was evaluated for binding in the presence or in the absence of orthosteric and allosteric ligands. […] Addition of 5–10 μg membrane protein initiated the incubation. After 45 min at room temperature, the incubation was terminated by rapid filtration followed by scintillation counting. Ki’s were calculated using 4-parameter curve fitting.

[4] = tested on: C57BL/6J mice; test: Amphetamine-induced disruption of latent inhibition (LI); format: in vivo; settings: dose-range 0.1–10, po
Experimental: The procedure was based on that described by Lipina et al.[39]. Briefly, male C57BL/6J mice (20–30 g, 6–8-week-old) were water restricted and trained to drink in an operant chamber for 15 min over 5 daily sessions. The LI procedure was completed in the following stages each given 24 h apart: (a) Pre-exposure: The preexposed (PE) animals received 40, 85-dB white noise presentations in the chamber for 50 min; the non-preexposed (NPE) animals were confined to the chamber for the same period but without the presence of the tone. (b) Conditioning: All mice received 2 tone-shock (1 s, 0.37 mA) pairings in the chamber. (c) Test: Each mouse was placed in the chamber and allowed to drink. After completing 75 licks, the white noise was presented and lasted until the mouse completed 100 licks. For data analysis, the time during 50–75 licks (A period) and the time to complete licks 76–100 (after tone onset; B period) was calculated into a suppression ratio defined as A/(A+B). A low suppression ratio indicates a stronger suppression of drinking. LI is defined as an […] in suppression ratio (little or no suppression), whereas a shorter time to complete licks 76–100 of the pre-exposed mice compared to the non-pre-exposed mice. Data (i.e. suppression ratio) were analyzed using the Friedman nonparametric two-way ANOVA model. […]

[5] = target: T3, human mGluR6 (Homo sapiens, UniProt O15303); test: Multispan Allosteric Profiling panel, Ca2+ (Gqi5); format: cell-based
T3 construct: host or cells: HEK293 co-expressing Gqi5
T3 sequence (O15303 25-877): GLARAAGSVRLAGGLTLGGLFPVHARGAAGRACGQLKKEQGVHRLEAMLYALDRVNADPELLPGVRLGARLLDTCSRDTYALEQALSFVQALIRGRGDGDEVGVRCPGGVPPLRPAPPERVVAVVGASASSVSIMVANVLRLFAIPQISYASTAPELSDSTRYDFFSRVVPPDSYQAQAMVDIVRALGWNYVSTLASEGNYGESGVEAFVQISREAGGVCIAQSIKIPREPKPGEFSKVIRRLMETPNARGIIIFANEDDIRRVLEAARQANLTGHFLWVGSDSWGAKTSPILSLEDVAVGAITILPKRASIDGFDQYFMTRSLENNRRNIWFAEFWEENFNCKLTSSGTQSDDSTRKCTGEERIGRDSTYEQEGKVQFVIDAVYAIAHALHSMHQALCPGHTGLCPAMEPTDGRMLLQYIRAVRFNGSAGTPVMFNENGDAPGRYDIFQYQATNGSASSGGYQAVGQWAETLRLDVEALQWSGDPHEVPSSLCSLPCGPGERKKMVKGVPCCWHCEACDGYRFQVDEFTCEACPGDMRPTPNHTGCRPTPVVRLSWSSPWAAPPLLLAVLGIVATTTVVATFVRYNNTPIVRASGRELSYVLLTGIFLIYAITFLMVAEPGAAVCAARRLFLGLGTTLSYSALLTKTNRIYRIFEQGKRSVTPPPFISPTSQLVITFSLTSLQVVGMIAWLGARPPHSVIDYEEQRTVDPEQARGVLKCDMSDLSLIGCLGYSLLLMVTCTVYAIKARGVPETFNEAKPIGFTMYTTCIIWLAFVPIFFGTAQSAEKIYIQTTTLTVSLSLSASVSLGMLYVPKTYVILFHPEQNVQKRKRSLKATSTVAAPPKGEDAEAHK

[6] = tested on: mice; set-up: method as in earlier work; settings: cited from earlier work
[7] = tested on: Swiss mice; test: MK-801-induced locomotor hyperactivity; format: in vivo
Experimental: An actimeter device consisting of a cylinder (20 cm diameter, 9.5 cm height, Apelex, France) equipped with two perpendicular light beams located 1.5 cm above the floor was used. Mice from the transgenic batches (DAT^−/− and NMDA Nr1^neo−/−) were orally pretreated with either SAR218645 or vehicle and individually isolated in boxes for a period of 60 min. Animals were then placed in the actimeter device and locomotor activity (number of interrupted light beams) was recorded for a period of 30 or 60 min. Mice in which the expression of the dopamine transporter (DAT) was knocked out (i.e., the DAT^−/− mouse) have been proposed as a reliable model of the positive symptoms of schizophrenia. In these mice, dopamine levels in the synapse are dramatically elevated and these animals are hyperactive and agitated in behavioral tests. […] Immediately following amphetamine challenge, 30 min after MK-801 challenge, mice were placed in the actimeter devices and locomotor activity was recorded for a period of 30 (DAT^−/−) or 60 (NMDA Nr1^neo−/−) min.
Statistical analyses were performed using SAS V8.2 software (SAS Institute, Cary, NC, USA). The number of light beam breaks (motility count) recorded for 30 or 60 min were analyzed using one-way ANOVAs using a fixed factor of challenge or genotype and complementary post hoc (Newman-Keuls) tests were performed. […]

T1 sequence (O00222 34-908): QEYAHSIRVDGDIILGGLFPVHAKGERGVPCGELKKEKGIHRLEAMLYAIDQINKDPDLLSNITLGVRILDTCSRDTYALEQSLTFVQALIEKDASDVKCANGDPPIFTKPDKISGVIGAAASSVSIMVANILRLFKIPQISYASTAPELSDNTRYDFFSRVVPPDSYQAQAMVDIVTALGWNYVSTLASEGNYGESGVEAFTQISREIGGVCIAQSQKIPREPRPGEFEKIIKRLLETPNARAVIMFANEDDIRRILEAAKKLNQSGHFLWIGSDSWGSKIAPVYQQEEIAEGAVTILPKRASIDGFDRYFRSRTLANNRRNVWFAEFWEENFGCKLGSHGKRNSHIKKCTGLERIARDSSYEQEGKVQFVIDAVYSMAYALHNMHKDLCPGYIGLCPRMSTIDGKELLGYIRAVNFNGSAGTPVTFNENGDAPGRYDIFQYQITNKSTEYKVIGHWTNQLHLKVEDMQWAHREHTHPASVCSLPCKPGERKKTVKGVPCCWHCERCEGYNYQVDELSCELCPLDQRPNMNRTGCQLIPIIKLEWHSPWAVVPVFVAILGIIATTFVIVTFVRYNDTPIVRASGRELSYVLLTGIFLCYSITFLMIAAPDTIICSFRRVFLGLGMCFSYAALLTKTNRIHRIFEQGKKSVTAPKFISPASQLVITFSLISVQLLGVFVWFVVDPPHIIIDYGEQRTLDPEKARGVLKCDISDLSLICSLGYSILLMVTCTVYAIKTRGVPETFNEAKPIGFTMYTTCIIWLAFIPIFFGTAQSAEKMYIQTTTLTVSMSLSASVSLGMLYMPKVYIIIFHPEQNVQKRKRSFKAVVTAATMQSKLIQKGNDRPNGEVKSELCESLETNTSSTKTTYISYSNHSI

CC1(C)CCc2cc(OC[C@@H]3Cn4ccc(=O)nc4O3)ccc21 [SAR218645, (S)-2-(1,1-dimethyl-indan-5-yloxymethyl)-2,3-dihydro-oxazolo[3,2-a]pyrimidin-7-one]
effect on glutamate-induced activation ([1]; 10 μM SAR218645): no effect | calcium response to compound alone ([1]; SAR218645 alone): did not elicit a calcium response | inhibition of radioligand binding, panel [2]: no interaction | effect on [3H]LY341495 binding, compound alone ([3]; applied alone): no effect | effect on glutamate-mediated inhibition of [3H]LY341495 binding ([3]; with glutamate): nor did the drug affect | Minimal active dose [4]: 1 mg/kg | effect on glutamate-induced activation ([5]; 10 μM SAR218645): no effect | calcium response to compound alone ([5]; SAR218645 alone): did not elicit a calcium response | effect on the activity of risperidone in the active avoidance test [6]: did not interfere | effect on locomotor activity ([7]; MK-801 0.2 mg/kg ip, SAR218645 po): no effects | Minimal active dose ([7]; dose-range 0.1–10, po, Swiss mice): >10 mg/kg
